Data reported in US20240261440A1, “COMPOSITIONS, METHODS AND USES FOR TREATING CYSTIC FIBROSIS AND RELATED DISORDERS” (The Board of Regents of The University of Texas System, priority 0001, published 2024).

Tested on: C57BL/6 mice
Test: In vivo Luc mRNA delivery (IVIS luminescence imaging)
Design: species or system mouse
Details: 0.1 mg kg-1 Luc mRNA, i.v., 6h; 20% to 50% cationic lipid
Procedure: C57BL/6 mice with weight at around 20 g were i.v. injected with various Luc mRNA formulations (0.1 mg kg^−1 of Luc mRNA, n=3 per group). After 6 hours, these mice were injected with D-Luciferin (150 mg kg^−1, intraperitoneal) and imaged immediately using an IVIS Lumina system (Perkin Elmer). Afterwards, these mice were killed, and tissues were excised for ex vivo imaging using IVIS Lumina system.

## CCCCCCCC/C=C\CCCCCCCC(=O)OCC(C[N+](C)(C)C)OC(=O)CCCCCCC/C=C\CCCCCCCC (stereo not shown) [DOTAP, 1,2-dioleoyl-3-trimethylammonium-propane]
  luciferase expression in mouse lungs, permanently cationic lipid screen in mDLNP-2: higher luminescence activity than others
